Source: patent US6753348B2, “BTK inhibitors and methods for their identification and use” (Parker Hughes Institute, priority 1998, dated 2004)

Tests used:
[1] = system: ALL-1 cells; experiment: Ceramide-induced apoptosis, MC540/PI flow cytometry; assay type: cell-based, human; conditions: 200 μM plus 10 μM C2-ceramide
[2] = target: EGF-Receptor Kinase (EGFR) (Homo sapiens, UniProt P00533); experiment: Cell-free tyrosine kinase inhibition assay EGFR; assay type: biochemical
[3] = target: T1, JAK3 (Homo sapiens, UniProt P52333); experiment: Cell-free tyrosine kinase inhibition assay JAK3; assay type: biochemical
T1 sequence (P52333 1-1124): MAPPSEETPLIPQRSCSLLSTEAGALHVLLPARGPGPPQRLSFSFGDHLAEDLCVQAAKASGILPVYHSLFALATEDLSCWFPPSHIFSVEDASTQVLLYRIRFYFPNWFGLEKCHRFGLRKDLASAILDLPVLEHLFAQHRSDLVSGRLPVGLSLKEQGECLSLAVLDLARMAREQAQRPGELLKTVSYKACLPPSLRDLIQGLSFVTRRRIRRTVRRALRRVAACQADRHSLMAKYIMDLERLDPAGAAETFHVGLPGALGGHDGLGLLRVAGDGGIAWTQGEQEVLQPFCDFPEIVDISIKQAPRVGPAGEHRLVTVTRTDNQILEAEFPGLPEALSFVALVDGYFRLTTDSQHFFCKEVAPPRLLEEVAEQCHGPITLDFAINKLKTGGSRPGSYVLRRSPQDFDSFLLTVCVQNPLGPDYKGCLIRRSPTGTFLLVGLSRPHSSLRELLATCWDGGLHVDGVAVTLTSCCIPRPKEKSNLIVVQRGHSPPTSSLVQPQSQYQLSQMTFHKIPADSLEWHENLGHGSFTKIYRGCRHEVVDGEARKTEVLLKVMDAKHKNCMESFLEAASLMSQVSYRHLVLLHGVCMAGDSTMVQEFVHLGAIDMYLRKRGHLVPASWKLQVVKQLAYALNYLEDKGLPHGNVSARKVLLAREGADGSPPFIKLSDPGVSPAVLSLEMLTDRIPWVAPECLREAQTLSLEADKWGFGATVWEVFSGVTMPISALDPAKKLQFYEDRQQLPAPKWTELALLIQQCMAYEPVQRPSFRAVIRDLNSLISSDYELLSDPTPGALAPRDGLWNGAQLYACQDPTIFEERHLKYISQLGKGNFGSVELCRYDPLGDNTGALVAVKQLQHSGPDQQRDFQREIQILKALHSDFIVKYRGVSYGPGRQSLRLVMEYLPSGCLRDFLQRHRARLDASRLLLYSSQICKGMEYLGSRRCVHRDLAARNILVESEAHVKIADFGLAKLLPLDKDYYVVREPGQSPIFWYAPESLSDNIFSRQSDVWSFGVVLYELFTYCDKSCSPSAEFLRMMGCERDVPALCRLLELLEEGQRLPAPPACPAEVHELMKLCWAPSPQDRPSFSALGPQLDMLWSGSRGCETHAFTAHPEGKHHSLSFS

[4] = system: NALM-6-UM1 cells; experiment: Fas-mediated apoptosis, DNA fragmentation; assay type: cell-based, human
Protocol: FIGS. 6A-6D: Apoptotic Responses of Human B-lineage Leukemia Cells to Fas Ligation in Relationship to BTK Expression and Function. Anti-BTK and anti-Actin dual-antibody Western blot analysis of whole cell lysates from BTK-positive NALM-6-UM1 (N6-U1) and BTK-deficient RAMOS-1 cells (FIG. 5A). Anti-Fas Western blot analysis of the same cell lysates. [B] Cells were harvested 24 hours after exposure to anti-Fas antibody at 0.1 μg/ml or 1.0 μg/ml concentrations and DNA from Triton-X-100 lysates was analyzed for fragmentation, as described by Uckun, F. M., et al. (1996) Science 273, 1096-1100; and Uckun, F. M., et al. (1995) Science 267, 886-91. […] [C.1] and [C.2] […] N6-U1 cells were harvested 24 hours after exposure to anti-Fas antibody at 0.1 μg/ml or 1.0 μg/ml concentrations and DNA from Triton-X-100 lysates was analyzed for fragmentation, as described by Uckun, F. M., et al. (1996) Science 273, 1096-1100; and Uckun, F. M., et al. (1995) Science 267, 886-91. […]
Apoptosis Assays. […] MC540 binding (as an early marker of apoptosis) and PI permeability (as a marker of advanced stage apoptosis) were simultaneously measured in DT-40 cells 24 hours after exposure to anti-Fas antibody as previously described (Uckun, F. M., et al. (1996) Science 273, 1096-1100). Whole cells were analyzed with a FACStar Plus flow cytometer (Becton Dickinson, San Jose, Calif.). […]

[5] = target: T2, Insulin-Receptor Kinase (IRK) (Homo sapiens, UniProt P06213); experiment: Cell-free tyrosine kinase inhibition assay IRK from HepG2 cells; assay type: biochemical
T2 construct: IRK was immunoprecipitated from the lysates with an anti-IRb antibody
T2 sequence (P06213 28-1382): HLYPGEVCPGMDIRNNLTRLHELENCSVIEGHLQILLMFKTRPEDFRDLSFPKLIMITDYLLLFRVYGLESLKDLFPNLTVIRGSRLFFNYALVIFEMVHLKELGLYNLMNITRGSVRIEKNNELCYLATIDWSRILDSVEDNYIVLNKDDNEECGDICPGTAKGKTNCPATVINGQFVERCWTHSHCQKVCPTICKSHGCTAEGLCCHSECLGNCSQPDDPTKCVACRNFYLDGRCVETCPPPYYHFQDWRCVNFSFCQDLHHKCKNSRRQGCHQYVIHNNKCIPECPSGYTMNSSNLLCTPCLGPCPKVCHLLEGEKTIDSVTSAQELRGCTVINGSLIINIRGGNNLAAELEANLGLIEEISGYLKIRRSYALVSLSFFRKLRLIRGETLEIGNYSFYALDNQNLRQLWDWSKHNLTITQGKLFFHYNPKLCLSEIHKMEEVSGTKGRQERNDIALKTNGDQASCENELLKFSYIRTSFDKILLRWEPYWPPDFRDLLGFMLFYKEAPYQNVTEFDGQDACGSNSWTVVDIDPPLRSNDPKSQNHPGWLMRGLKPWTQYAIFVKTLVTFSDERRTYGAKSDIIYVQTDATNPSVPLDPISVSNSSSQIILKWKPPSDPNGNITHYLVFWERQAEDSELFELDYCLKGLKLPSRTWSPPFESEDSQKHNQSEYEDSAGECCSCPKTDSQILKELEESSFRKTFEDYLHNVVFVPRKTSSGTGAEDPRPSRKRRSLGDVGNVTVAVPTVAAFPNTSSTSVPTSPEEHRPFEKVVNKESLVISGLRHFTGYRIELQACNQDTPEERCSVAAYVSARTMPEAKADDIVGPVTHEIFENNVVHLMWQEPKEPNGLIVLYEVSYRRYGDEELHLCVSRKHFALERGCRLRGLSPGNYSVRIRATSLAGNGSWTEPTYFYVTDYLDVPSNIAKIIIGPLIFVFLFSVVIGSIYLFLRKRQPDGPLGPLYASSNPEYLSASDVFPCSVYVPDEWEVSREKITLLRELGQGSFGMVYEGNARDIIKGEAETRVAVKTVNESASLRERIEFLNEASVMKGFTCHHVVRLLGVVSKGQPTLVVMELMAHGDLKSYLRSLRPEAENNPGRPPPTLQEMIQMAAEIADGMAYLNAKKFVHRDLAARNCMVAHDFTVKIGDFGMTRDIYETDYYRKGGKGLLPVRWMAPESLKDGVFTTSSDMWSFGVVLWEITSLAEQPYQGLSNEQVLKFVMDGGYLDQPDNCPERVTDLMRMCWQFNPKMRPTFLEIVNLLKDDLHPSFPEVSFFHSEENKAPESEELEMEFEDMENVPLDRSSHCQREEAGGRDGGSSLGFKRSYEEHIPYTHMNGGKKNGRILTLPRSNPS

[6] = concentrations as high as 100 μg/ml (~278 μM)

Sequence of EGF-Receptor Kinase (EGFR) (P00533 25-1210, species assumed): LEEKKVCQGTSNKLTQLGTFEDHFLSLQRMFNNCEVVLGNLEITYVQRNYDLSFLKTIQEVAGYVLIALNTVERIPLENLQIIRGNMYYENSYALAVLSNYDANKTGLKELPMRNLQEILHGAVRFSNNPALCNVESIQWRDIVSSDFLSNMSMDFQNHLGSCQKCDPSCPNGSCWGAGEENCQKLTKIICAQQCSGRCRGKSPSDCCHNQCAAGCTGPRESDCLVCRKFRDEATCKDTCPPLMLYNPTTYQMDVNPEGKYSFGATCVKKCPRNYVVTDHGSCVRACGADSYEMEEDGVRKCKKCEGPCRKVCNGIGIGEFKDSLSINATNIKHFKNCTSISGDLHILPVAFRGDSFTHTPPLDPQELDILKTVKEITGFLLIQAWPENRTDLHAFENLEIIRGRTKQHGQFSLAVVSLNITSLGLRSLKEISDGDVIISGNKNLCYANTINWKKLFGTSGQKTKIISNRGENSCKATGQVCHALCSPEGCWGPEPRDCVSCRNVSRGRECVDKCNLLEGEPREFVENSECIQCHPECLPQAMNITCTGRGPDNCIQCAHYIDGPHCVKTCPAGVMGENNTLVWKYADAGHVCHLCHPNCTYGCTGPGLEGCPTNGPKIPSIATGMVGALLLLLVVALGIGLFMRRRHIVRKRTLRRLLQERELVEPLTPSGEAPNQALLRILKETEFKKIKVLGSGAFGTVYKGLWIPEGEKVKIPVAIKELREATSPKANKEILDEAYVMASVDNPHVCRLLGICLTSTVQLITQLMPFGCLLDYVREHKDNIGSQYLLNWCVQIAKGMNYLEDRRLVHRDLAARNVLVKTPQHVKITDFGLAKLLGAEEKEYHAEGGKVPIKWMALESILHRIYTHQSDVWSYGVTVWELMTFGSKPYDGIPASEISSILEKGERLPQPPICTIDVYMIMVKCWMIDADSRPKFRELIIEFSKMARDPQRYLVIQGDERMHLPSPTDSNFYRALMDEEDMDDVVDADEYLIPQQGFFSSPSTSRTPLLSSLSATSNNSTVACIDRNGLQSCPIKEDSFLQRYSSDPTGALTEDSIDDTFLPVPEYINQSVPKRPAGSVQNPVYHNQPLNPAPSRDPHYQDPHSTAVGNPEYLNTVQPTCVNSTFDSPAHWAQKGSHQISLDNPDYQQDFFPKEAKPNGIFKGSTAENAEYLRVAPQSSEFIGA

Row | SMILES | melting point [°C] | chemosensitivity to ceramide-induced apoptosis [1] | IC50 ([2]; EGFR) [µM] | effect on enzymatic activity of EGFR [2, 6] | IC50 [3] [µM] | effect on enzymatic activity of JAK3 [3, 6] | sensitivity to Fas-mediated apoptosis after pretreatment ([4]; 10 μM x 4 hours, then anti-Fas 0.1 or 1.0 μg/ml, 24 hours) | apoptosis by compound alone ([4]; 10 μM, 4 hour treatment) | IC50 ([5]; IRK) [µM] | effect on enzymatic activity of IRK [5, 6]
1 | CC(O)=C(C#N)C(=O)Nc1cccc(C(F)(F)F)c1 [LFM-A8, α-Cyano-β-hydroxy-β-methyl-N-[3-(trifluoromethyl)phenyl]-propenamide] | 182 to 184 | – | – | – | – | – | – | – | – | –
2 | C/C(O)=C(\C#N)C(=O)Nc1cc(Br)ccc1Br [LFM-A13, α-Cyano-β-hydroxy-β-methyl-N-(2,5-dibromophenyl)-propenamide] | – | significantly enhanced the chemosensitivity | > 278 | did not affect the enzymatic activity | > 278 | did not affect the enzymatic activity | sensitive to Fas-mediated apoptosis | did not induce apoptosis | > 278 | did not affect the enzymatic activity
